Measurements from ChEMBL document CHEMBL3885881, “DrugMatrix”.

Species: Rattus norvegicus
Experiment: DrugMatrix - Regimen: Daily Repeat
Type: toxicity, organism-based, Sprague-Dawley
Set-up: regimen Daily Repeat, gender Male, age 6-8 weeks
Details: in vivo, sc, route subcutaneous, […]; for ABSOLUTE BASOPHIL / ABSOLUTE EOSINOPHIL / ABSOLUTE LYMPHOCYTE / ABSOLUTE MONOCYTE / ABSOLUTE SEGMENTED NEUTROPHIL / BASOPHIL / EOSINOPHIL / ERYTHROCYTE COUNT / HEMATOCRIT / HEMOGLOBIN / LEUKOCYTE COUNT / LYMPHOCYTE / MEAN CORPUSCULAR HEMOGLOBIN / MEAN CORPUSCULAR HEMOGLOBIN CONCENTRATION / MEAN CORPUSCULAR VOLUME / MONOCYTE / NEUTROPHIL / NUCLEATED RED BLOOD CELLS / PLATELET COUNT: tissue Blood; for ALANINE AMINOTRANSFERASE / ALKALINE PHOSPHATASE / ASPARTATE AMINOTRANSFERASE / BLOOD UREA NITROGEN / CARBON DIOXIDE / CHLORIDE / CHOLESTEROL / CREATINE PHOSPHOKINASE / CREATININE / GLUCOSE / LACTATE DEHYDROGENASE / LIPASE / PHOSPHORUS / POTASSIUM / SODIUM / TOTAL BILIRUBIN / TOTAL PROTEIN / URIC ACID: tissue Plasma
[1] = 17 mg/kg, 120 h, dose level Low, time 5 day
[2] = 800 mg/kg, 72 h, dose level High, time 3 day
[3] = 800 mg/kg, 120 h, dose level High, time 5 day

CC(C)Cn1cnc2c(N)nc3ccccc3c21 [IMIQUIMOD]
ABSOLUTE BASOPHIL [1]: 0 CELLS/uL | ABSOLUTE EOSINOPHIL [1]: 29.67 CELLS/uL | ABSOLUTE LYMPHOCYTE [1]: 8944.33 CELLS/uL | ABSOLUTE MONOCYTE [1]: 43 CELLS/uL | ABSOLUTE SEGMENTED NEUTROPHIL [1]: 1349.67 CELLS/uL | BASOPHIL [1]: 0% | EOSINOPHIL [1]: 0.33% | ERYTHROCYTE COUNT [1]: 5.45 x10E6/uL | HEMATOCRIT [1]: 33.33% | HEMOGLOBIN [1]: 12.27 G/DL | LEUKOCYTE COUNT [1]: 10.37 x10E3/uL | LYMPHOCYTE [1]: 85.67% | MEAN CORPUSCULAR HEMOGLOBIN [1]: 22.53 pg | MEAN CORPUSCULAR HEMOGLOBIN CONCENTRATION [1]: 36.77 G/DL | MEAN CORPUSCULAR VOLUME [1]: 61.17 fL | MONOCYTE [1]: 0.33% | NEUTROPHIL [1]: 13.67% | NUCLEATED RED BLOOD CELLS [1]: 0.67 /100WBC | PLATELET COUNT [1]: 1497.33 x10E3/uL | ALANINE AMINOTRANSFERASE [1]: 53 u/L | ALKALINE PHOSPHATASE [1]: 401.33 u/L | ASPARTATE AMINOTRANSFERASE [1]: 93.33 u/L | BLOOD UREA NITROGEN [1]: 17 mg/dL | CARBON DIOXIDE [1]: 23.67 mmol/L | CHLORIDE [1]: 108.67 MEQ/L | CHOLESTEROL [1]: 52.33 mg/dL | CREATINE PHOSPHOKINASE [1]: 410.67 u/L | CREATININE [1]: 0.19 mg/dL | GLUCOSE [1]: 174.67 mg/dL | LACTATE DEHYDROGENASE [1]: 110 u/L | LIPASE [1]: 7 u/L | PHOSPHORUS [1]: 13.1 mg/dL | POTASSIUM [1]: 6.07 MEQ/L | SODIUM [1]: 146.2 MEQ/L | TOTAL BILIRUBIN [1]: 0.2 mg/dL | TOTAL PROTEIN [1]: 5.23 G/DL | URIC ACID [1]: 1.73 mg/dL | ABSOLUTE BASOPHIL [2]: 0 CELLS/uL | ABSOLUTE EOSINOPHIL [2]: 67.67 CELLS/uL | ABSOLUTE LYMPHOCYTE [2]: 7240 CELLS/uL | ABSOLUTE MONOCYTE [2]: 88 CELLS/uL | ABSOLUTE SEGMENTED NEUTROPHIL [2]: 637.67 CELLS/uL | BASOPHIL [2]: 0% | EOSINOPHIL [2]: 1% | ERYTHROCYTE COUNT [2]: 5.31 x10E6/uL | HEMATOCRIT [2]: 33.3% | HEMOGLOBIN [2]: 12.5 G/DL | LEUKOCYTE COUNT [2]: 8.03 x10E3/uL | LYMPHOCYTE [2]: 90% | MEAN CORPUSCULAR HEMOGLOBIN [2]: 23.57 pg | MEAN CORPUSCULAR HEMOGLOBIN CONCENTRATION [2]: 37.57 G/DL | MEAN CORPUSCULAR VOLUME [2]: 62.73 fL | MONOCYTE [2]: 1% | NEUTROPHIL [2]: 8% | NUCLEATED RED BLOOD CELLS [2]: 0 /100WBC | PLATELET COUNT [2]: 828 x10E3/uL | ALANINE AMINOTRANSFERASE [2]: 47 u/L | ALKALINE PHOSPHATASE [2]: 345.33 u/L | ASPARTATE AMINOTRANSFERASE [2]: 91.67 u/L | BLOOD UREA NITROGEN [2]: 15.67 mg/dL | CARBON DIOXIDE [2]: 28.67 mmol/L | CHLORIDE [2]: 107 MEQ/L | CHOLESTEROL [2]: 65 mg/dL | CREATINE PHOSPHOKINASE [2]: 419.33 u/L | CREATININE [2]: 0.27 mg/dL | GLUCOSE [2]: 147 mg/dL | LACTATE DEHYDROGENASE [2]: 130.67 u/L | LIPASE [2]: 7.5 u/L | PHOSPHORUS [2]: 10.23 mg/dL | POTASSIUM [2]: 5.87 MEQ/L | SODIUM [2]: 147.45 MEQ/L | TOTAL BILIRUBIN [2]: 0.13 mg/dL | TOTAL PROTEIN [2]: 5.17 G/DL | URIC ACID [2]: 0.73 mg/dL | ABSOLUTE BASOPHIL [3]: 0 CELLS/uL | ABSOLUTE EOSINOPHIL [3]: 301.33 CELLS/uL | ABSOLUTE LYMPHOCYTE [3]: 14418.33 CELLS/uL | ABSOLUTE MONOCYTE [3]: 118 CELLS/uL | ABSOLUTE SEGMENTED NEUTROPHIL [3]: 5662.33 CELLS/uL | BASOPHIL [3]: 0% | EOSINOPHIL [3]: 1.33% | ERYTHROCYTE COUNT [3]: 4.85 x10E6/uL | HEMATOCRIT [3]: 30.53% | HEMOGLOBIN [3]: 12.07 G/DL | LEUKOCYTE COUNT [3]: 20.5 x10E3/uL | LYMPHOCYTE [3]: 70.33% | MEAN CORPUSCULAR HEMOGLOBIN [3]: 24.9 pg | MEAN CORPUSCULAR HEMOGLOBIN CONCENTRATION [3]: 39.5 G/DL | MEAN CORPUSCULAR VOLUME [3]: 62.93 fL | MONOCYTE [3]: 0.67% | NEUTROPHIL [3]: 27.67% | NUCLEATED RED BLOOD CELLS [3]: 0.33 /100WBC | PLATELET COUNT [3]: 1467 x10E3/uL | ALANINE AMINOTRANSFERASE [3]: 44 u/L | ALKALINE PHOSPHATASE [3]: 267.67 u/L | ASPARTATE AMINOTRANSFERASE [3]: 86 u/L | BLOOD UREA NITROGEN [3]: 18 mg/dL | CARBON DIOXIDE [3]: 25 mmol/L | CHLORIDE [3]: 103.67 MEQ/L | CHOLESTEROL [3]: 58 mg/dL | CREATINE PHOSPHOKINASE [3]: 257.33 u/L | CREATININE [3]: 0.29 mg/dL | GLUCOSE [3]: 184.67 mg/dL | LACTATE DEHYDROGENASE [3]: 248 u/L | LIPASE [3]: 7.67 u/L | PHOSPHORUS [3]: 11.8 mg/dL | POTASSIUM [3]: 5.8 MEQ/L | SODIUM [3]: 142.87 MEQ/L | TOTAL BILIRUBIN [3]: 0.17 mg/dL | TOTAL PROTEIN [3]: 5.3 G/DL | URIC ACID [3]: 1.6 mg/dL
